Measurements as given in US6265423A, “Aromatic polycyclic retinoid-type derivatives, method for preparing same, and use thereof for making pharmaceutical and cosmetic compositions” (priority 1996, dated 2001).
Entries after “also recorded” stand apart in the source; their conditions may differ.

Key:
[1] = system: RARE, endogenic RAR and RXR receptors, HRL+N lineage; assay: HRL+N transactivation (RARE-luciferase, stably transfected HeLa); assay type: cell-based; details: for Emax: Homo sapiens, HeLa, read-out: HRL+N transactivation, E max (Table 27)
Description: MCF-7 cells and HeLa are cultivated in DMFM with phenol red to which 5% foetal calf serum is added. The T47-D cells are cultivated in RPMI to which 10% foetal calf serum is added. The experimental tests are carried out in DMEM without phenol red to which foetal calf serum treated with dextran carbon is added at 3%. […] The experiments using the different retinoids are carried out sheltered from the light so as to avoid any isomerisation.
Certain properties of the retinoids have been determined using more developed cellular models. These models consist of cellular lineages transfected in a stable fashion by recombinant plasmids which place the expression of the gene of the luciferase under the control of different nuclear response elements. […] The tests carried out in duplicate are described below for each of these models.
The cellular lineages HRLN and HRL+N allow one to study the activation of an RARE by endogenic receptors using ligands at physiological concentrations. These lineages derive from HeLa cells transfected in a stable fashion by a reporter gene which places the expression of the gene of the luciferase under the control of a nuclear response element RARE (RARE3 -tk-Luc). The HeLa cells express all the known receptors of the retinoic acid (RARα,β,γ and RXRα,β,γ) with a predominance of RARα and RXRα. The response element RARE used for the HRLN cells corresponds to the sequence of the natural gene of the RARβ receptor (GGTTCAnnnnnAGTTCA). The HRL+N cells comprise the sequence GAGTGAnnnnnCGGTGA.
The HRL+N lineage allows one to visualise a co-activation of the RAR and RXR receptors at the level of the RAR-RXR hetero-dimer.

Gal4-RARα = assay: Transactivation, chimerical receptor Gal4-RARα (transitory transfection of HeLa); assay type: cell-based; details: 10^-6 M; 100% = TTNPB 10^-8 M
[2] = system: A-427 human pulmonary cancer cells; assay: MTT test, proliferation of A-427; details: for activity at 0.01 µM / activity at 1 µM / activity at 100 µM: Homo sapiens, A-427, 72 h, read-out: level of proliferation; for effect on cellular increase, A-427 (in words): MTT test
[3] = system: T-47D human mammary cancer cells; assay: MTT test, proliferation of T-47D; assay type: cell-based; details: for activity at 100 µM / activity at 1 µM / activity at 0.01 µM: Homo sapiens, T47D, T-47D, 72 h, control = 100%, read-out: level of proliferation; for activity at 100 µM: 10^-4 M; for activity at 1 µM: 10^-6 M; for activity at 0.01 µM: 10^-8 M
How it was run: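 After 24 h seeding, cells in MEM with 5% decomplemented FCS at 37° C were exposed to compound at 10^-8 M, 10^-6 M and 10^-4 M. Viability was assessed by MTT reduction to formazan, dissolved in DMSO. Mean optical density is expressed as % of untreated control (100%), in 6 duplicates.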

RARα-ERcassette = assay: Transactivation, chimerical receptor RARα-ERcassette (HeLa); assay type: cell-based; details: TTNPB 10^-8 M = 100
How it was run: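 HeLa cells transiently co-transfected (calcium phosphate) with RAR whose DNA-binding C domain is replaced by the oestrogen receptor's, an ERE-luciferase reporter, and CMV-β-galactosidase as transfection control. Compounds applied 24 h post-transfection for 16 h; luciferase read-out.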

[4] = system: Gal4-RAR (RARα, RARβ, RARγ); assay: Chimerical receptors Gal4-RAR, overall profile; assay type: cell-based
RAR and RXR receptors = assay: RAR/RXR activity profile drawn from the models; assay type: cell-based
Source text: The reference molecules have allowed one to show the effectiveness and the complementary nature of the different models used and lead to the following conclusions: chimerical constructions GAL-RAR and RAR-ERcassette allow the determination of the RAR agonist profile of molecules, but also an RXR agonist activity with RAR-ERcassette, the HRLN lineage mainly conveys the activity of a compound mediated by endogenic RARα, the HRL+N lineage also provides evidence of an RXR agonist activity of the retinoids, the anti-oestrogenic effect of the retinoids (oestrogen-induced cellular proliferation and MELN lineage) is mediated by RARα, the anti-AP-1 effect is mediated in the MCF-7 cells (MTLN lineage) by RARα, RARγ and RXRα, and an additive effect exists between the RAR and RXR routes.

SMILES	HRL+N transactivation (in words) [1]	Emax [1] [%]	GAL4-RAR RARα transactivation (Gal4-RARα) [%]	activity at 0.01 µM [2] [%]	activity at 1 µM [2] [%]	activity at 100 µM [2] [%]	effect on cellular increase, A-427 (in words) [2]	activity at 100 µM [3] [%]	activity at 1 µM [3] [%]	activity at 0.01 µM [3] [%]	effect on cellular increase, T-47D (in words) ([3]; MTT test)	RAR-ERcassette RARα transactivation (RARα-ERcassette; 10^-6 M) [%]	RAR-ERcassette RARα transactivation (RARα-ERcassette; 10^-7 M) [%]	RAR-ERcassette RARα transactivation (RARα-ERcassette; 10^-8 M) [%]	Gal-RAR agonist profile (in words) [4]	RAR/RXR activity profile (in words) (RAR and RXR receptors)
C/C(=C/c1ccc2c(c1)C(C)(C)CCC2(C)C)c1ccc(-c2nnn[nH]2)cc1 [CB92834]	weak transactivation, less than that of TTNPB; also recorded: with a specific RAR agonist induces a stronger transactivation than that observed for each compound tested separately; also recorded: over-activation by CB92834 of the transactivation induced by a selective RAR agonist on the HRL+N lineage	42	8	80.5	78.3	3.1	show activity on the increase of these two lineages	3.5	83.2	86.5	strongly inhibitive activity on the cellular increase of the two lineages	11	9	0	not RAR agonists	RXR specific activity
C/C(=C/c1ccc2c(c1)C(C)(C)CCC2(C)C)c1ccc(C(=O)O)cn1 [CB38416, (Z) 2-[1-(5,6,7,8-tetrahydro-5,5,8,8-tetramethyl-2-naphthalenyl)-2-propenyl]pyridinyl-5-carboxylic acid]	bring about a transactivation greater than RAR selective agonists (TTNPB)	131	58	106	105	24.1	–	42.5	82.6	119	–	65	7	0	partial agonist for RARα and RARβ but complete for RARγ	panagonistic
CC1(C)CCC(C)(C)c2cc(/C=C(\c3ccc(-c4nnn[nH]4)cc3)C(F)(F)F)ccc21 [CB77402, (E) 5-[4-[1-trifluoromethyl-2-(5,6,7,8-tetrahydro-5,5,8,8-tetramethyl-2-naphthalenyl)-1-ethenyl]phenyl]-1H-tetrazole]	weak transactivation, less than that of TTNPB; also recorded: with a specific RAR agonist induces a stronger transactivation than that observed for each compound tested separately	33	6	82.3	77.6	0.2	show activity on the increase of these two lineages	15.4	118	128	–	8	1	0	not RAR agonists	RXR specific activity
